Laboratory results as given in BindingDB's records for doi:10.1021/jm0704651 (University of Turin, 2007).

Target: T1, Lanosterol synthase (Homo sapiens, UniProt P48449)
T1 sequence (P48449 whole entry): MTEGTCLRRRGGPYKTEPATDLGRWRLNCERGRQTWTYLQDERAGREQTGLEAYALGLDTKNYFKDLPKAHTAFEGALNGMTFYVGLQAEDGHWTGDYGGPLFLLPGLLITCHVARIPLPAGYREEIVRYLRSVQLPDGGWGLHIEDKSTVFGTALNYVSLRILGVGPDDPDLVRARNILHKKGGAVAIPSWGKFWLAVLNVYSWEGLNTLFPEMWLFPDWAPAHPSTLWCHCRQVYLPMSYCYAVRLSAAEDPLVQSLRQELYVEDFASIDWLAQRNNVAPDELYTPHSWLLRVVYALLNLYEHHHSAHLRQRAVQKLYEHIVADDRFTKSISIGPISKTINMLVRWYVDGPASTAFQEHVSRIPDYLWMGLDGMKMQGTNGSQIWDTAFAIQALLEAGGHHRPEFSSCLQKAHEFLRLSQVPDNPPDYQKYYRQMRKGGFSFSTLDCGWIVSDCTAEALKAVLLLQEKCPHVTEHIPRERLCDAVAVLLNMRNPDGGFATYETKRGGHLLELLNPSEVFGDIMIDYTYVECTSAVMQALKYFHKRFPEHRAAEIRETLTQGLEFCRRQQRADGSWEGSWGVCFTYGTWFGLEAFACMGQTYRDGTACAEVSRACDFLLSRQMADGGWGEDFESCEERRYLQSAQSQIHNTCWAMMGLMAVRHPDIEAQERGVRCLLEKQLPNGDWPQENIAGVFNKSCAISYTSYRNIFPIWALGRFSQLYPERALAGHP
Assay: Inhibition of oxidosqualene cyclase

IC50: 19 nM
SMILES: C=CCN(C)CCCCCCOc1ccc2c(-c3ccc(Br)cc3)nn(C)c2c1
